The values that follow come from patent publication US20180289702A1, “LPA LEVEL REDUCTION FOR TREATING CENTRAL NERVOUS SYSTEM DISORDERS” (priority 2015, published 2018).

Series [1] in a line: PF8380 concentration in serum and cerebrospinal fluid by mass spectrometry. The series is classed as in vivo, mice. How it is done: Animals were treated using the in-vivo potent autotaxin inhibitor PF 8380 (Gierse et al., 2010). Animals received a single i.p. injection 3 hours prior to PPI.
Nanoscale UPLC separation was performed with a nanoAcquity UPLC system (Waters Corporation) equipped with a PepSwift Monolithic PS-DVB, 200 μm×5 cm analytical column (Thermo Scientific Dionex). For analysis, samples (300 nL) were directly injected onto the analytical column. Mobile phase A was water containing 0.1% v/v formic acid, while mobile phase B was ACN containing 0.1% v/v formic acid. Samples were separated at 55° C. with a gradient of 1-35% mobile phase B over 20 min at a flow rate of 800 nL/min. The column was rinsed for 7 min with 99% mobile phase B, followed by a re-equilibration step at initial conditions resulting in total analysis times of 40 min.
Mass spectrometric analysis of PF-8380 was performed in positive mode ESI using a Synapt G2-S HDMS mass spectrometer (Waters Corporation). Samples were analyzed using a targeted MS-method isolating the singly charged precursor of PF-8380. […] All samples and references were analyzed in three technical replicates.
Raw data were analyzed manually using MassLynx V4.1 Software (Waters Corporation). Extracted ion chromatograms of fragment ions at m/z 301 were used for quantitative analysis calculating the area under the curve. […]

Another series concerns PRG-1R346T+/− animals. Briefly: PPI in PRG-1R346T+/− knock-in mice. The note with it: monoallelic PRG-1R346T+/− animals. The series is classed as in vivo. The method, then: In order to investigate whether the described human mutation indeed results in a endophenotype for psychiatric disorders, the inventors produced an knock-in mouse line where the PRG-1^R346T mutated gene was introduced in place of the PRG-1 wild-type gene. Since only monoallelic PRG-1^R346T mutation carriers were detected, PRG-1^R346T+/− animals were used for the study, which correspond to the human in-vivo situation.
Animals received a single i.p. injection 3 hours prior to PPI.

Series [2] concerns animal model of schizophrenia induced by ketamine. Briefly: ketamine-induced animal model of schizophrenia: PPI and open field hyperactivity. The series is classed as in vivo, mice. The text has this: In order to correlate these electrophysiological effects with behavior in these mice, the inventors first analyzed PPI after ketamine application. […] In sum, ATX-inhibition has the general potential to normalize E/I balance in psychiatric disorders associated with increased glutamatergic input and opens a new therapeutic avenue towards treatment of psychiatric disorders.

Series [3] deals with MCAO mouse model of stroke. Briefly: medial cerebral artery occlusion (MCAO) mouse model of stroke. The series is classed as in vivo, mice. Particulars: 30 mg/kg i.p. 3 hours prior to MCAO. How it is done: (§1) For stroke experiments, mice were anesthetized and occlusion of the medial cerebral artery (MCAO) was performed for 30 min (assessment after 3 days) or for 1 h (assessment after 1day) by introduction of an intraluminal filament as reported (Ploen et al., 2014). […] After 1 h or after 30 min of MCAO, respectively, mice recovered and were perfused 24 hours (1 h MCAO) or 72 hours (30 min MCAO) later. Brains were extracted, snap frozen and cryosectioned using a cryotome. Mounted brain slices were Nissl-Stained which allowed to measure infarct area and to calculate total infarct volume per animal. All measurements were performed in a blinded fashion. Data was assessed for normality and statistical analysis was performed using an one-tailed t-test.

A further series has as its system PRG-1+/− mice. Briefly: MCAO stroke model in PRG-1+/− mice. The format is in vivo. The method, then:
as §1

Another series deals with wild type (WT) animals. Briefly: mEPSC recordings with PF8380, wild type. The format is cell-based, mice.
Series [4] deals with hippocampal slices from PRG-1 KO mice. Briefly: evoked EPSCs in hippocampal slices. The series is classed as cell-based.
Another series concerns PRG1−/− mice. Briefly: Morris water maze. The note with it: untreated and PF8380-treated PRG1−/− mice, during training days. The series is classed as in vivo. The method, then: For MWM the escape latency, swim speed, path length, and trajectory of swimming were recorded for each mouse. First, mice were trained for 5 days in “visible platform” task, than for 6 days in “hidden platform” task (spatial training), followed by a “probe trial”, which was repeated for 4 times. Mice received daily 4 trials for a maximum of 90 s with an intertrial interval of 5 min. The swim velocity (mean and max) and the immobility time (time spend not searching) were measured.

Series [5] relates to mice. Briefly: food intake after overnight food deprivation. The format is in vivo. The text has this: Metabolic alterations like overnight fasting induce changes in LPA subtype composition (Ino M et al. 2012). This correlates with the increased activity of ATX after overnight food deprivation, the availability of the ATX substrate LPC but also with the substrate preferences of ATX for unsaturated LPCs. In order to understand the cortical effects of altered LPA-composition upon fasting, the inventors analyzed food consumption after overnight food deprivation in control and PF8380-treated animals. […] However, overnight food deprivation was not related to hyperlocomotion since travelled distance in an open field setting was not different between control, overnight food deprived and PF-treated overnight food deprived animals (FIG. 19B).

The subject of series [6] is mice. Briefly: open field locomotion of food deprived animals. The format is in vivo. Particulars: OF 10 min; controls, food deprived controls and food deprived animals treated with PF8380.
The target in another series is autotaxin (Homo sapiens, UniProt Q13822). The note with it: Gierse et al., 2010; cited from earlier work.

Take `O=C(CCN1CCN(C(=O)OCc2cc(Cl)cc(Cl)c2)CC1)c1ccc2[nH]c(=O)oc2c1` [PF8380, 4-[3-(2,3-Dihydro-2-oxo-6-benzoxazolyl)-3-oxopropyl]-1-piperazinecarboxylic acid (3,5-dichlorophenyl)methyl ester]: the “concentrations in the serum” value in series [1] (in-vivo application 30 mg/KG/BW) was “robust concentrations”. The concentration at 3 h in series [1] (mouse, cerebrospinal fluid, ip, 30 mg/KG/BW, single i.p. injection, 3 hours after injection) was ≤ 420 nM. The “Pre Pulse Inhibition (PPI)” value in the series on PRG-1R346T+/− animals was “rescue the decreased PPI to WT values”. In series [2], the PPI result was “rescued to WT values” and the “hyperactivity following ketamine application in an open field setting” value is “significantly reduced”. In addition, the infarct size entry in [3] (after 1 day (1 h MCAO)) is reported as “significantly reduced”. Further, the infarct size entry in [3] (after 3 days (30 min MCAO)) is listed as “significantly reduced”. The infarct volume result in the series on PRG-1+/− mice (30 min MCAO measured 3 d after stroke) is listed as “significantly decreased”. Further, in the series with PRG-1+/− mice (3 h, 24 h, 48 h and 72 h post MCAO), the “outcome in modified Neurologic Severity Score” value is reported as “significantly improves”. For the same compound, the “long-term sensorimotor dysfunction, corner test” value in the series on PRG-1+/− mice (24 h up to 72 h post MCAO) is given as “significantly improved”. Moreover, in the series on wild type (WT) animals, the mEPSC amplitudes result was “did not affect” and the mEPSC frequency entry is “did not affect”. Moreover, in series [4], the PPR entry is reported as “increased”; the “evoked potentials (eEPSC, first stimulus)” value is “significantly affected”; the “second stimulus applied at an interval of 50 ms” value is given as “did not alter”. The “escape latency in the Morris-Water-Maze” value with PRG1−/− mice is “did not change”. Besides, in the series with mice [5] (control mice (not food deprived)), the food intake result is recorded as “does not alter”. Also, the food intake entry with mice [5] (overnight food deprived animals, within 60 min) was “significantly decreased”. Moreover, the “locomotion in the open field, total distance” value with mice [6] is listed as “did not display significant differences”. In addition, the “potency as inhibitor of the LPA-synthetizing enzyme autotaxin” value on autotaxin is given as “nanomolar potency”.
